Our source for the Ki values is BindingDB's records for doi:10.1046/j.1471-4159.1998.71062558.x (F. Hoffmann-La Roche, 1998).

Structures are written as SMILES.

As usually defined, the Ki is a dissociation constant, usually derived from enzyme kinetics or from competition with a known ligand. The low end stands for a stronger hold on the target, the high end for a looser hold on the target.

For the assay, the target named is Metabotropic glutamate receptor 2 (Homo sapiens, UniProt Q14416).
Chain of Metabotropic glutamate receptor 2 (Q14416 whole entry): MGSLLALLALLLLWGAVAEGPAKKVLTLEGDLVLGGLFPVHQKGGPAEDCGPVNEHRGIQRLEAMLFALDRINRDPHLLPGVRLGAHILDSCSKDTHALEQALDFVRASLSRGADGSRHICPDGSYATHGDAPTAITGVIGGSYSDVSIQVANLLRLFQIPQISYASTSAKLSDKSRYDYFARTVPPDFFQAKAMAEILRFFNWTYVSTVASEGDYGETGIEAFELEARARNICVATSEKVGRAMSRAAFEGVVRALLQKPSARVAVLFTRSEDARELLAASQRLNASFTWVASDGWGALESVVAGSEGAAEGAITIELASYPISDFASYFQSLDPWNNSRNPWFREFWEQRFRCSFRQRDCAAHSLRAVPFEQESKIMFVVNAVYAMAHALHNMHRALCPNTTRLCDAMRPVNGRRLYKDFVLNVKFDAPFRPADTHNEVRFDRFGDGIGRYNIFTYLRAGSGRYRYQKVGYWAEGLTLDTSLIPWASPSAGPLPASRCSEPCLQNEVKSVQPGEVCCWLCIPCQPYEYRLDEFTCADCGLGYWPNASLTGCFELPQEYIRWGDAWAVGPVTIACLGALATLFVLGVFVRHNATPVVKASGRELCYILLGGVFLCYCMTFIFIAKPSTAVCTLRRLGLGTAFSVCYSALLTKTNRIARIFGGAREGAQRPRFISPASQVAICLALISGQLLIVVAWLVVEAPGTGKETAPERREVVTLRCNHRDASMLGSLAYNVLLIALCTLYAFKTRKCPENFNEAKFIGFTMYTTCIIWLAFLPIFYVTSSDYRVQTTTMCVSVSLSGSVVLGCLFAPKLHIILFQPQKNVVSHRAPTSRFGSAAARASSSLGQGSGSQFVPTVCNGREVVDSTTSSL
For `N[C@@H](CCP(=O)(O)O)C(=O)O`, affinity was put at a Ki of 680 nM.
With `CC(N)(C(=O)O)c1ccc(P(=O)(O)O)cc1` (stereo unspecified), the Ki was 260 nM.
`C[C@@](N)(C(=O)O)c1ccc(C(=O)O)cc1` (racemic) registered a Ki of 334 nM.
`N[C@@]1(C(=O)O)CC[C@H](C(=O)O)C1` [1S, 3R-ACPD] returned a Ki of 9.33 nM.
With `N[C@@H](Cn1oc(=O)[nH]c1=O)C(=O)O` [2-amino-3-(3,5-dioxo[1,2,4]oxadiazolidin-2-yl)propionic acid] the figure was 178 nM; with `N[C@H](CP(=O)(O)O)C(=O)O` [CAS_23052-80-4], 263 nM; with `CCC(N)(CCC(=O)O)C(=O)O` (stereo unspecified) [CAS_5311079], 376 nM.
With `NC(Cn1cnc2c(=O)[nH]c(=O)[nH]c21)(C(=O)O)C1CC1C(=O)O` (stereo unspecified) [CAS_5311260], the inhibition constant (Ki) turned out to be 0.078 nM.
The compound `N[C@H](C(=O)O)C1[C@@H](C(=O)O)[C@@H]1C(=O)O` (stereo partly specified) [DCG-IV] came in with a Ki of 0.368 nM.
Compound `N[C@H](C(=O)O)[C@H]1C[C@H]1C(=O)O` [L-CCG-IV] registered a Ki of 0.378 nM.
`C[C@](N)(C(=O)O)C1C[C@@H]1C(=O)O` (stereo partly specified) [MCCG-I] gave a Ki of 69 nM.
